Measurements from US20150056269A1, “LIPOSOME COMPRISING AT LEAST ONE CHOLESTEROL DERIVATIVE” (TROPHOS, priority 2011, published 2015).
Values after ≈ are worked out from the molar mass of the structure shown. Read-outs that look alike come from different tables or passages of the source.

Columns and labels:
[1] = Maximum solubility of the compounds of formula (I) in water and different solvents; assay type: physicochemical; conditions: for solubility: read-out: Maximum solubility (concentration)
Description: The maximum solubility of the compounds of formula (I) was tested in water and different solvents: […]

[2] = Suspensions of EPC liposomes containing the derivatives of formula (I): concentration in liposomes and particle size; assay type: physicochemical; conditions: for Particle size (nm): EPC liposomes containing the compound; for Concentration of compound in mg/mL in the liposomes: EPC liposomes, after extrusion and solvent removal
Description: A solution of lipids at 250 mg/mL is prepared by dissolving defined quantities of EPC and the compound of formula (I) in tert-butanol or a mixture of tert-butanol and absolute ethanol (v/v). This lipid solution is mixed at a certain temperature with aqueous buffer in order to obtain a final concentration of solvent of 15 to 17% and of product of formula (I) of […].
The large multilamellar vesicles are then extruded at a fixed temperature through 3 polycarbonate filters by 10 consecutive passes. The non encapsulated compound of formula (I) is removed on the filters.
The solvent is eliminated by filtration on membrane by washing with buffer in order to achieve a percentage of final solvent of the order of 0.4%.

[3] = liposome based on egg phospholipids, oil or lipid
[4] = Liposome based on egg phospholipids

Row | Particle size (nm) [2] [nm] | Concentration of compound in mg/mL in the liposomes [2] [mg/mL] | SMILES | other results
1 | 88.9 | 12.4 | CC(C)CCC[C@@H](C)[C@H]1CC[C@H]2[C@@H]3CCC4=CC(=NO)CC[C@]4(C)[C@H]3CC[C@]12C [Compound 3, cholest-4-en-3-one oxime] | solubility [1, 3]: 12400 µg/mL (≈ 31000 µM); solubility ([1]; water): 0.1 µg/mL (≈ 0.25 µM)
2 | 84.7 | 8.2 | CCC[C@@]1(C)C(=NO)CC[C@H]2[C@@H]3CC[C@H]([C@H](C)CCCC(C)C)[C@@]3(C)CC[C@@H]21 [Compound 6, 3,5-seco-4-norcholestan-5-one oxime] | Maximum solubility (concentration) ([1]; Intralipid 10): 400 µg/mL; Maximum solubility (concentration) [1, 4]: 8200 µg/mL; Maximum solubility (concentration) ([1]; Water): 0.1 µg/mL
3 | 79.5 | 9.2 | CC(C)CCCC(C)C1CCC2C3CCC(=NO)C(C)(CCC(C)(C)O)C3CCC12C (centres unmarked) [Compound 2, 3,3-dimethyl-3-hydroxy-3,5-seco-4-norcholestan-5-one oxime] | 
4 |  | 11.4 | CC(C)CCCC(C)C1CCC2C3CCC(=O)C(C)(CCCO)C3CCC12C (centres unmarked) [Compound 8, 3-hydroxy-3,5-seco-4-norcholestan-5-one] | 

The remaining lines, values behind:

Row | SMILES | Particle size (nm) [2] [nm] | Concentration of compound in mg/mL in the liposomes [2] [mg/mL] | other results
5 | CC(C)=CCC[C@@H](C)[C@H]1CC[C@H]2[C@@H]3CCC4=CC(=O)CC[C@]4(C)[C@H]3CC[C@]12C [Compound 9, cholest-4,24-dien-3-one] |  | 10.1 | 
6 | CC(C)CCCC(C)C1CCC2C3CCC(=NO)C(C)(CCCO)C3CCC12C (centres unmarked) [Compound 1, 3-hydroxy-3,5-seco-4-norcholestan-5-one oxime] | 81.4 | 8.1 | Maximum solubility (concentration) ([1]; (2-hydroxypropyl)-beta-cyclodextrin, 30% PBS buffer): 700 µg/mL; Maximum solubility (concentration) ([1]; Intralipid 10): 1000 µg/mL; Maximum solubility (concentration) ([1]; Intralipid 10/Solutol HS15/ethanol 92/3/5): 5000 µg/mL; Maximum solubility (concentration) [1, 4]: 30000 µg/mL; Maximum solubility (concentration) ([1]; Soya oil): 6000 µg/mL; Maximum solubility (concentration) ([1]; Water): 1 µg/mL
7 | CC(C)CCC[C@@H](C)[C@H]1CC[C@H]2[C@@H]3CCC4=C(F)C(=NO)CC[C@]4(C)[C@H]3CC[C@]12C [Compound 5, 4-fluoro-cholest-4-en-3-one oxime] | 79.1 | 3.6 | 
8 | CC(C)=CCC[C@@H](C)[C@H]1CC[C@H]2[C@@H]3CCC4=CC(=NO)CC[C@]4(C)[C@H]3CC[C@]12C [Compound 4, cholest-4,24-dien-3-one oxime] | 80.7 | 14.5 | solubility ([1]; Intralipid 10, oil or lipid): 340 µg/mL (≈ 855 µM); solubility [1, 3]: 14500 µg/mL (≈ 36500 µM); solubility ([1]; water): 0.1 µg/mL (≈ 0.251 µM)
9 | CC(C)CCC[C@@H](C)[C@H]1CC[C@H]2[C@@H]3CCC4=CC(=O)CC[C@]4(C)[C@H]3CC[C@]12C [Compound 7, cholest-4-en-3-one] |  | 12.1 | 
